The values below come from US10301280B2 (Plexxikon Inc., priority 2012, dated 2019).

The test system of the assay is BaF3-FL KIT D816V or BaF3-FL KIT V560G/D816V cell line. Put plainly: Cell-based assays of c-Kit mutant kinase activity (cell growth, ATPlite). To be noted: at least one of the c-kit cell assays of Example 26. The protocol:
The c-Kit mutant D816V inhibitors were assessed using an engineered BaF3-FL KIT D816V or BaF3-FL KIT V560G/D816V cell line. The BaF3-FL KIT D816V cell lines were created by introduction of KIT mutant (D816V) full length constructs that render the cells dependent on the introduced kinase for growth. Inhibitors of c-Kit mutant D816V kinase reduce or eliminate the mediated c-kit mutant D816V kinase activation, resulting in reduced cell proliferation of the BaF3-FL Kit mutant D816V cells. This inhibition is measured by the effect of compound concentration on cell growth to assess IC50 values. BaF3-FL KIT D816V cells were seeded at 1×10^4 cells per well of a 96 well cell culture plate in 50 μl of cell culture medium of RPMI Medium 1X (Invitrogen #11875-093) supplemented with 10% FBS (Invitrogen #10438), 1% Non Essential Amino Acids(Invitrogen #11140), 1% Penicillin Streptomycin (Invitrogen #15140), 1% L-Glutamine (Invitrogen #25030-081). Compounds were dissolved in DMSO at a concentration of 5 mM and were serially diluted 1:3 for a total of eight points and added to the cells to a final maximum concentration of 10 μM in 100 μl cell culture medium (final concentration 0.2% DMSO). Cells were also treated with Dasatinib as a positive control. The cells were incubated at 37° C., 5% CO2 for three days. ATPlite Buffer (Perkin Elmer #6016739) and substrate were equilibrated to room temperature, and enzyme/substrate Recombinant Firefly Luciferase/D-Luciferin was reconstituted. The cell plates were equilibrated to room temperature for 30 minutes, then lysed by addition of 25 uL per well of the ATPlite Reagent. The plate was mixed for 5 minutes on a plate shaker to lyse the cells. The plates were read on a Tecan Safire using Luminescence protocol modified to read 0.1 s per well. The luminescence reading assesses the ATP content, which correlates directly with cell number such that the reading as a function of compound concentration is used to determine the IC50 value.
Plasmids P75635 and P75565 were engineered for mammalian cell expression. In both plasmids, full-length human v-kit Hardy-Zuckerman 4 feline sarcoma viral oncogene homolog gene (NCBI accession NM_000222, KIT, residues M1-V976) was subcloned into the pCI-Neo vector (Promega E1841). Plasmid P75635 contains the mutation of residue Aspartic acid 816 to Valine. Plasmid P75565 contains the double mutation of residues Valine 560 to Glycine and Aspartic acid 816 to Valine. The pCI-neo Mammalian Expression Vector carries the human cytomegalovirus (CMV) immediate-early enhancer/promoter region to promote constitutive expression of KIT and contains the neomycin phosphotransferase gene, a selectable marker.
It is understood that the results of these assays may vary as assay conditions are varied. Inhibition levels determined under the conditions described herein represent a relative activity for the compounds tested under the specific conditions employed. The cell based assays are likely to show variability due to the complexity of the system and the sensitivity thereof to any changes in the assay conditions. […] In some instances, the compounds were not tested in all of the assays, or assay results were not valid.
(Cellular ATP, detected with luciferase, serves as a proxy for viable cell number.)
In general, IC50 refers to the point on the concentration scale where inhibition reaches its midpoint. A low value points to greater potency. `Cc1n[nH]c(C(=O)Nc2cnc3[nH]c(-c4ccc(C(=O)N5CCCC5)cc4)cc3c2)c1C` [P-2101, 3,4-dimethyl-N-[2-[4-(pyrrolidine-1-carbonyl)phenyl]-1H-pyrrolo[2,3-b]pyridin-5-yl]-1H-pyrazole-5-carboxamide] registered an IC50 of less than 10 µM. To `COCCCOc1ccc(-c2cc3cc(NC(=O)c4[nH]nc(C)c4C)cnc3[nH]2)cc1` [P-2102, N-[2-[4-(3-methoxypropoxy)phenyl]-1H-pyrrolo[2,3-b]pyridin-5-yl]-3,4-dimethyl-1H-pyrazole-5-carboxamide] belongs less than 10 µM; to `Cc1n[nH]c(C(=O)Nc2cnc3[nH]c(-c4ccc(N5CCN(C)CC5)cc4)cc3c2)c1C` [P-2104, 3,4-dimethyl-N-[2-[4-(4-methylpiperazin-1-yl)phenyl]-1H-pyrrolo[2,3-b]pyridin-5-yl]-1H-pyrazole-5-carboxamide], less than 10 µM. In the case of `Cc1n[nH]c(C(=O)Nc2cnc3[nH]c(-c4ccc(C(=O)N5CCSCC5)cc4)cc3c2)c1C` [P-2105, 3,4-dimethyl-N-[2-[4-(thiomorpholine-4-carbonyl)phenyl]-1H-pyrrolo[2,3-b]pyridin-5-yl]-1H-pyrazole-5-carboxamide] it was less than 10 µM; in that of `Cc1n[nH]c(C(=O)Nc2cnc3[nH]c(-c4cccc(C(=O)N5CCOCC5)c4)cc3c2)c1C` [P-2106, 3,4-dimethyl-N-[2-[3-(morpholine-4-carbonyl)phenyl]-1H-pyrrolo[2,3-b]pyridin-5-yl]-1H-pyrazole-5-carboxamide], less than 10 µM.

In turn, `Cc1n[nH]c(C(=O)Nc2cnc3[nH]c(-c4cccc(C(=O)N5CCCC5)c4)cc3c2)c1C` [P-2107, 3,4-dimethyl-N-[2-[3-(pyrrolidine-1-carbonyl)phenyl]-1H-pyrrolo[2,3-b]pyridin-5-yl]-1H-pyrazole-5-carboxamide] gave an IC50 of less than 10 µM. To `Cc1n[nH]c(C(=O)Nc2cnc3[nH]c(-c4ccnc(C5CC5)c4)cc3c2)c1C` [P-2108, N-[2-(2-cyclopropyl-4-pyridyl)-1H-pyrrolo[2,3-b]pyridin-5-yl]-3,4-dimethyl-1H-pyrazole-5-carboxamide] belongs less than 10 µM; to `COc1cc(-c2cc3cc(NC(=O)c4[nH]nc(C)c4C)cnc3[nH]2)ccn1` [P-2109, N-[2-(2-methoxy-4-pyridyl)-1H-pyrrolo[2,3-b]pyridin-5-yl]-3,4-dimethyl-1H-pyrazole-5-carboxamide], less than 10 µM; to `Cc1n[nH]c(C(=O)Nc2cnc3[nH]c(-c4ccnc(N5CCOCC5)c4)cc3c2)c1C` [P-2110, 3,4-dimethyl-N-[2-(2-morpholino-4-pyridyl)-1H-pyrrolo[2,3-b]pyridin-5-yl]-1H-pyrazole-5-carboxamide], less than 10 µM.

Consider `Cc1n[nH]c(C(=O)Nc2cnc3[nH]c(-c4ccc(NS(C)(=O)=O)cc4)cc3c2)c1C` [P-2111, N-[2-[4-(methanesulfonamido)phenyl]-1H-pyrrolo[2,3-b]pyridin-5-yl]-3,4-dimethyl-1H-pyrazole-5-carboxamide], for which the IC50 is less than 10 µM. For `Cc1cc(C(=O)Nc2cnc3[nH]c(-c4ccc(F)cc4)cc3c2)nn1C` [P-2119, N-[2-(4-fluorophenyl)-1H-pyrrolo[2,3-b]pyridin-5-yl]-1,5-dimethyl-pyrazole-3-carboxamide], the IC50 was less than 10 µM. In the case of `Cc1n[nH]c(C(=O)Nc2cnc3[nH]c(-c4ccncc4)cc3c2)c1C` [P-2124, 3,4-dimethyl-N-[2-(4-pyridyl)-1H-pyrrolo[2,3-b]pyridin-5-yl]-1H-pyrazole-5-carboxamide] it was less than 10 µM.

In the case of `Cc1n[nH]c(C(=O)Nc2cnc3[nH]c(-c4ccc(N5CCCC5)cc4)cc3c2)c1C` [P-2125, 3,4-dimethyl-N-[2-(4-pyrrolidin-1-ylphenyl)-1H-pyrrolo[2,3-b]pyridin-5-yl]-1H-pyrazole-5-carboxamide], the IC50 is less than 10 µM.

As to `CCCS(=O)(=O)Nc1cccc(-c2cc3cc(NC(=O)c4[nH]nc(C)c4C)cnc3[nH]2)c1` [P-2126, 3,4-dimethyl-N-[2-[3-(propylsulfonylamino)phenyl]-1H-pyrrolo[2,3-b]pyridin-5-yl]-1H-pyrazole-5-carboxamide], the IC50 is less than 10 µM. In the case of `Cc1n[nH]c(C(=O)Nc2cnc3[nH]c(-c4ccc(P(C)(C)=O)cc4)cc3c2)c1C` [P-2127, N-[2-(4-dimethylphosphorylphenyl)-1H-pyrrolo[2,3-b]pyridin-5-yl]-3,4-dimethyl-1H-pyrazole-5-carboxamide] it was less than 10 µM; in that of `Cc1n[nH]c(C(=O)Nc2cnc3[nH]c(-c4cccc(C#N)c4)cc3c2)c1C` [P-2128, N-[2-(3-cyanophenyl)-1H-pyrrolo[2,3-b]pyridin-5-yl]-3,4-dimethyl-1H-pyrazole-5-carboxamide], less than 10 µM. In the case of `COc1cccc(-c2cc3cc(NC(=O)c4[nH]nc(C)c4C)cnc3[nH]2)c1F` [P-2129, N-[2-(2-fluoro-3-methoxy-phenyl)-1H-pyrrolo[2,3-b]pyridin-5-yl]-3,4-dimethyl-1H-pyrazole-5-carboxamide] it was less than 10 µM; in that of `Cc1cccc(-c2cc3cc(NC(=O)c4[nH]nc(C)c4C)cnc3[nH]2)c1` [P-2130, 3,4-dimethyl-N-[2-(m-tolyl)-1H-pyrrolo[2,3-b]pyridin-5-yl]-1H-pyrazole-5-carboxamide], less than 10 µM; in that of `Cc1n[nH]c(C(=O)Nc2cnc3[nH]c(-c4ccc(F)cc4)cc3c2)n1` [P-2131, N-[2-(4-fluorophenyl)-1H-pyrrolo[2,3-b]pyridin-5-yl]-3-methyl-1H-1,2,4-triazole-5-carboxamide], less than 10 µM. To `CCCc1cc(C(=O)Nc2cnc3[nH]c(-c4ccc(F)cc4)cc3c2)[nH]n1` [P-2132, N-[2-(4-fluorophenyl)-1H-pyrrolo[2,3-b]pyridin-5-yl]-3-propyl-1H-pyrazole-5-carboxamide] belongs less than 10 µM; to `CC(=O)Nc1ccc(-c2cc3cc(NC(=O)c4[nH]nc(C)c4C)cnc3[nH]2)cn1` [P-2133, N-[2-(6-acetamido-3-pyridyl)-1H-pyrrolo[2,3-b]pyridin-5-yl]-3,4-dimethyl-1H-pyrazole-5-carboxamide], less than 10 µM. `CCCCNC(=O)Nc1cccc(-c2cc3cc(NC(=O)c4[nH]nc(C)c4C)cnc3[nH]2)c1` [P-2134, N-[2-[3-(butylcarbamoylamino)phenyl]-1H-pyrrolo[2,3-b]pyridin-5-yl]-3,4-dimethyl-H-pyrazole-5-carboxamide] showed a 50% inhibitory concentration (IC50) of less than 10 µM. In the case of `COc1ccccc1-c1cc2cc(NC(=O)c3[nH]nc(C)c3C)cnc2[nH]1` [P-2135, N-[2-(2-methoxyphenyl)-1H-pyrrolo[2,3-b]pyridin-5-yl]-3,4-dimethyl-1H-pyrazole-5-carboxamide] it was less than 10 µM; in that of `Cc1ncccc1-c1cc2cc(NC(=O)c3[nH]nc(C)c3C)cnc2[nH]1` [P-2136, 3,4-dimethyl-N-[2-(2-methyl-3-pyridyl)-1H-pyrrolo[2,3-b]pyridin-5-yl]-1H-pyrazole-5-carboxamide], less than 10 µM. To `CC(=O)Nc1ccc(-c2cc3cc(NC(=O)c4[nH]nc(C)c4C)cnc3[nH]2)cc1` [P-2137, N-[2-(4-acetamidophenyl)-1H-pyrrolo[2,3-b]pyridin-5-yl]-3,4-dimethyl-1H-pyrazole-5-carboxamide] belongs less than 10 µM.
